Experimental data: patent publication US11608324B2, “Solid forms of fasoracetam” (The Children's Hospital of Philadelphia, priority 2018, dated 2023)

Legend:
[1] = Hygroscopicity (statement); assay type: physicochemical
[2] = Solubility curve in ethyl acetate (Crystal16); assay type: physicochemical; conditions: FIG. 10
Excerpt: FIG. 7 is the x-ray powder diffraction of the R-fasoracetam monohydrate Form I starting material used in this Example 1, and FIG. 8 is the corresponding DSC thermogram of that starting material. A solubility curve was constructed for the cocrystal in ethyl acetate with the results plotted in FIG. 10 (from the data collected in Example 1) using a Crystal16 device from Technobis Crystallization Systems. The samples were created from the cocrystal without adding any additional water or other constituents. The samples were heated at a rate of 1°/15 minutes.

[3] = Thermogravimetric analysis (TGA), thermal stability; assay type: physicochemical
Experimental: TGA measurements were carried out on a METTLER TOLEDO TGA/SDTA 851e. Samples were placed in open aluminum oxide crucible. All experiments were performed under nitrogen flow.
A TGA plot can be found at FIG. 6. The sample was equilibrated at 30.0° C. for five minutes prior to ramping. A heating rate of 5° C. per minute was used from 30.0° C. to 350.0° C. No significant weight loss was observed until temperatures greater than 180° C. were recorded.

[4] = system: metabotropic glutamate receptor (mGluR), all classes; conditions: Hirouchi M, et al. (2000); WO2017/044491; cited from earlier work
[5] = subjects having a genetic alteration in an mGluR network gene; cited from earlier work

In the case of `O=C1CC[C@H](C(=O)N2CCCCC2)N1` [R-fasoracetam anhydrate], the hygroscopicity [1] is reported as “hygroscopic”.
With `Nc1ccc(C(=O)O)cc1.O=C1CC[C@H](C(=O)N2CCCCC2)N1` [R-fasoracetam:PABA cocrystal] the “solubility as compared with R-fasoracetam monohydrate Form I” value [2] was “approximately three-fold lower”, the “thermal stability by TGA, stable up to” value ([3]; TGA, FIG. 6) was “about 200 °C” and the “temperature until which no significant weight loss was observed (TGA)” value ([3]; heating rate 5° C. per minute from 30.0° C. to 350.0° C.) was “greater than 180 °C”.
In the case of `O=C1CC[C@H](C(=O)N2CCCCC2)N1` [fasoracetam], the “activity against mGluRs in vitro” value [4] is given as “nonselective activator against all classes of mGluRs” and the “treatment outcome in ADHD” value [5] is given as “successfully treated”.
